Tests used:
[1] = system: Extracellular L. donovani promastigotes; experiment: Resazurin viability assay of extracellular L. donovani promastigotes; type: cell-based, Leishmania donovani; settings: for 53 strain not specified
Description: (§1) The effect of compounds on extracellular promastigotes was evaluated using a resazurin-based assay as described previously. In short, late log phase Leishmania promastigotes were seeded in a 96 well plate at 1 x 10^5 parasites per well and treated with drugs (0.5 – 200 µM) for 72 hours at 25°C. Ten microliters of Resazurin (0.02% w/v) were added to the treated parasites to achieve a final concentration of 0.002% w/v and incubated for 24 hours. Viability of the promastigotes was assessed by fluorescence (excitation 544 nm, emission 590 nm, SpectraMax M2, Molecular Devices).

[2] = system: THP-1 macrophages; experiment: MTT viability of THP-1 macrophages (host cell cytotoxicity); type: cell-based; settings: 72 hr incubation up to 300µM
Description: Human monocytes, THP-1 (ATCC, TIB002) were used as host cells for Leishmania infection and to assess drug cytotoxicity. The cells were cultured at 37C, 5% CO2 in RPMI medium (ATCC) supplemented with 10% FBS, 1% Penicillin/Streptomycin and 0.05 mM of β-mercaptoethanol. Cells were used in experiments up to passage 10.
Effect of the compounds on THP-1 cell viability measured using thiazolyl blue tetrazolium bromide which measures cell metabolic activity (MTT). […] Macrophages were then treated with compounds resuspended in RPMI media (1–50 µM) for 24 hours. Media was replaced with thiazolyl blue tetrazolium bromide solubilized in RPMI media (0.5 mg/mL) and incubated at 37°C for 2 hours. The reduced formazan crystals were solubilized with isopropyl alcohol and the absorbance of the resulting solution was measured at 560 nm with a background subtraction at 670 nm. […] This process was repeated with a 72-hr incubation and extended concentration range (1–300 µM) for select compounds.

[3] = target: T1, lysozyme (Homo sapiens, UniProt P61626); experiment: Fluorometric lysozyme activity assay; type: biochemical; parameters: purchased Sigma L1667; settings: lysozyme 1mg/mL; 0, 1, and 50 µM 197
T1 sequence (P61626 19-148): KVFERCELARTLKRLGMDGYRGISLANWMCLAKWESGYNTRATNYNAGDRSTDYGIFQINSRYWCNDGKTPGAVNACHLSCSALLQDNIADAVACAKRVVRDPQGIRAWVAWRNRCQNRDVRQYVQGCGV
Description: Recombinant human lysozyme protein (1mg/mL, Sigma, Cat # L1667) was incubated with 0 µM, 1 µM or 50 µM 197. Lysozyme activity was measured via a fluorometric assay (Abcam, Cat # ab211113) according to manufacturer’s protocol.

[4] = system: LV82 L. donovani; experiment: Giemsa staining of intracellular L. donovani in BMDMs from wildtype C57BL/6 or lysozyme knockout mice; type: cell-based, Leishmania donovani; settings: 72-hour incubation
From the text: B6.129P2-Lyz2^tm1(cre)Ifo/J mice (stock #004781, herein termed ‘Lys K/O’) were obtained from Jackson Laboratory. This strain has a nuclear-localized Cre recombinase inserted into the first coding ATG of the lysozyme 2 gene (Lyz2) which eliminates endogenous Lyz2 gene function. Wildtype C57BL6/J mice (stock #000664) were obtained as a control.
Bone marrow derived macrophages (BMDMs) were isolated from both mice and cultured as described above in “Image-based Evaluation of Intracellular Anti-Leishmanial Activity”. BMDMs were seeded onto glass cover slips, infected with LV82 L. donovani at a multiplicity of infection of 1:10. Cells were washed to remove extracellular promastigotes and treated with compounds (197, amphotericin B) for a 72-hour incubation. BMDM cells were then washed with phosphate buffered saline, fixed with ice-cold methanol, and stained with Giemsa (5% v/v in water). The cover slips with stained cells are mounted onto glass slides and imaged on EVOS XL (100X, Thermo Fisher Scientific). Leishmania amastigotes per 100 macrophages were determined in a blinded manner.

[5] = system: Extracellular L. mexicana promastigotes; experiment: Resazurin viability assay of extracellular L. mexicana promastigotes; type: cell-based, Leishmania mexicana
Description: as §1

SMILES: O=C(CNCc1cccc(F)c1)Nc1ccc(-n2cc(C(F)(F)F)nc2-c2ccc(-c3ccc(C(F)(F)F)cc3)cc2)cc1 [Compound 197]
- direct effects on extracellular promastigote viability [1]: some direct reduction
- reduction in macrophage viability [2]: Neither compound had any reduction
- lysozyme activity [3]: dose-dependent increase
- anti-leishmanial activity in WT and Lys K/O BMDMs [4]: notably decreased in Lys K/O BMDMs
- effect on L. mexicana extracellular promastigote viability [5]: no effect
- MIC50 ([5]; Leishmania mexicana, 72-hour incubation): > 200 µM

Source: publication PMC13379085 (PLOS Neglected Tropical Diseases, 2026)
